Measurements published in patent US20200146989A1, “A CO-AMORPHOUS FORM OF A SUBSTANCE AND A DIPEPTIDE” (University of Copenhagen, priority 2016, published 2020).
Values joined by “and” are separate entries in the source; they are usually repeats but may differ in a detail not shown here. Equal entries are not always repeated.

Legend:
Type in all cases: physicochemical
[1] = Intrinsic dissolution rate (IDR) of compressed disks; settings: 0.01M phosphate buffer pH 7.2, 37° C., 100 rpm, triplicate
Protocol: For the intrinsic dissolution rate (IDR) studies, 150 mg of powder was compressed directly into stainless steel cylinders, which served as IDR sample holders, with a hydraulic press (Hydraulische Presse Model IXB-102-9, PerkinElmer, Ueberlingen, Germany). Disks of pure crystalline drug, pure amorphous drug, and the co-amorphous blends of respectively drug-AA, drug-AA-AA and drug-dipeptide, shown in table 1.1, were compressed at different compaction pressures between 124.9 MPa and 249.7 MPa for 60 seconds in order to obtain a stable compact with smooth surface.
For the dissolution experiment an Erweka DT70 dissolution tester (Erweka GmbH, Heusenstamm, Germany) was used. […] The samples were analyzed with the respective HPLC method for the different drugs as described below. […]
The IDR was calculated as the drug release per accessibility area (μg cm^−2). For this purpose the drug concentration at the different time points was analyzed with HPLC (μg mL-^1), multiplied with 900 ml and divided with the accessible surface area of the drug.
For the pure drugs the accessible area, was set to be the surface area of the compact (0.7854 cm^2). […] The corrected accessible surface area was calculated based on the accessibility area within the mixture. […] From the calculated drug volume and the total volume of the tablet the relative drug volume percentage could be determined. […]

[2] = Ease of amorphization by ball milling, checked by XRPD; design: key to Success in amorphization (yes/no): yes=y; no=n
Protocol: Amorphous and co-amorphous systems of the pure drugs and the binary and ternary mixtures with the amino acids or ASPA were prepared by vibrational ball milling.
The samples were prepared by placing a total amount of 500 mg of either the pure crystalline drug, mixtures of drug with one or two amino acids (molar ratio of either 1:1 or 1:1:1) or drug-dipeptides (1:1 molar ratio) in 25 ml milling jars containing two 12 mm stainless steel balls. The samples were milled at 30 Hz up to 180 min in an oscillatory ball mill (Mixer Mill MM400, Retch GmbH & Co, Haan, Germany) placed in a cooling room at 6° C.
(§1) The X-ray powder diffraction (XRPD) analysis was performed using a X'Pert Pro X-ray Diffractometer (PANalytical, Almelo, The Netherlands) using a Cu Kα radiation source (λ=1.54187 Å). An acceleration voltage and current of 45 kV and 40 mA were used. Samples were scanned in reflection mode between 5° and 35° 2θ with a scan speed of 0.0673° 2θ/s and a step size of 0.0262°. Data were collected and analyzed using the software X'Pert Data Collector (PANalytical, Almelo, The Netherlands). Samples were filled onto aluminum sample holders and gently compressed with a spatula, in order to contain a compacted and smooth surface.

[3] = Physical stability of amorphous and co-amorphous samples on dry storage, recrystallization detected by XRPD; settings: for Stability at 40° C. / Stability at room temperature: dry conditions, amorphous halo in XRPD
Protocol: as §1, with “a X'Pert Pro X-ray” left out, “Å).” for “Å).”, “surface. The pure amorphous drugs and co-amorphous mixtures were stored under dry conditions in desiccators at room temperature and 40° C.” for “surface.”

[4] = Powder dissolution, miniaturized USP 2 set-up; settings: 0.1 M phosphate buffer pH 6.8, 37° C.; for MEB concentration released after 20 min of dissolution: 100 rpm, 5 mg MEB in 100 ml
Protocol: Powder dissolution studies were performed in an ERWEKA DT70 dissolution tester (Heusenstamm, Germany) equipped with a custom-made miniaturized dissolution set-up described earlier [DOI: 10.1208/s12249-008-9161-6]. This set-up is a down-scaled version (the vessel size is 250 mL) of USP apparatus 2, and the hydrodynamics is essentially similar to the standard USP 2 apparatus. Pure drugs, drug-ASPA mixtures or drug-dipeptide mixtures containing an equivalent amount of 5 mg of MEB or 5 mg of TAD in total were placed in 100 ml of 0.1 M phosphate buffer (pH 6.8, 37° C.) and stirred at a rotation speed of 100 rpm. At predetermined time points (2, 5, 10, 20, 30, 60, 120, 180, 240, 300 and 360 min), 1 ml sample was withdrawn and immediately replaced with pre-warmed dissolution buffer. The obtained samples were quantified after filtration (0.45 μm) with the respective HPLC method for the different drugs as described below. All dissolution experiments were conducted in triplicate.
All samples from the dissolution studies were analyzed on a Dionex (Germering, Germany) HPLC system equipped with a P680 pump, an ASI-100 automated sample injector and a PDA 100 photodiode array detector was used. A reverse-phase Kinetex C18 ([…]×4.6 mm, 5 μm) column with UV detection at 240 nm for CRV, 264 nm for IND, 312 nm for MEB and 285 nm for TAD was used, with a constant flow rate of 1.0 ml min^−1 and an isocratic solvent system. The mobile phases (MP) consisted of 50% (V/V) phosphoric acid (pH=2) and 50% MeOH for the analysis of CRV, 25% (V/V) phosphoric acid (pH=2) and 75% MeOH for the analysis of IND, 47% (V/V) of 0.05 M KH2PO4, 20% (V/V) of acetonitrile and 33% (V/V) methanol for the analysis of MEB, 60% (V/V) 0.0724 M pH 6.8 phosphate buffer and 40% (V/V) of acetonitrile for the analysis of TAD, respectively. Chromatograms were analyzed by using Chromeleon Version 7.1.3.2425 software. […]

COc1ccccc1OCCNCC(O)COc1cccc2[nH]c3ccccc3c12 (centres unmarked) [CRV, Carvedilol]
intrinsic dissolution rate (IDR) ([1]; listed as amorphous CRV): 0.0086±0.001 mg cm^−2 min^−1 and 0.009±0.001 mg cm^−2 min^−1
Success in amorphization (yes/no) ([2]; IND and CRV samples, ball milled 90 or 180 min, XRPD): y

COc1ccc2c(c1)c(CC(=O)O)c(C)n2C(=O)c1ccc(Cl)cc1 [IND, Indomethacin]
Stability at 40° C. ([3]; IND and CRV): <7 days
Stability at room temperature ([3]; IND and CRV): <7 days
recrystallization peaks in the XRPD diffractograms within ([3]; storage at room temperature and 40° C. dry conditions, temperature not split in the sentence): ≤ 7 days
intrinsic dissolution rate (IDR) [1]: 0.128±0.004 mg cm^−2 min^−1

COC(=O)Nc1nc2ccc(C(=O)c3ccccc3)cc2[nH]1 [MEB, Mebendazole]
Stability at room temperature ([3]; MEB and TAD): >2 months
MEB concentration released after 20 min of dissolution ([4]; listed as amorphous MEB): 0.99 µg/mL
concentration after 240 min of dissolution as fold of crystalline MEB ([4]; 240 min): approx. 4.3 fold
Milling time fully amorphization ([2]; MEB samples, XRPD at 30, 60, 90 and 180 min of ball milling): 60 min
Success in amorphization (yes/no) ([2]; MEB samples, ball milled, XRPD at 30, 60, 90 and 180 min): y

CN1CC(=O)N2[C@H](c3ccc4c(c3)OCO4)c3[nH]c4ccccc4c3C[C@@H]2C1=O [TAD, Tadalafil]
Stability at 40° C. ([3]; MEB and TAD): >2 months
Stability at room temperature ([3]; MEB and TAD): >2 months

COC(=O)Nc1nc2ccc(C(=O)c3ccccc3)cc2[nH]1 [crystalline MEB, Mebendazole]
MEB concentration released after 20 min of dissolution [4]: 0.23 µg/mL
